Legend:
growth of cartilage = settings: in vivo; cited from earlier work
[1] = system: children with Osteogenesis Imperfecta; experiment: Continuous disodium pamidronate treatment of children with Osteogenesis Imperfecta (absorptiometry, biochemical markers, quantitative computerized tomography of the tibia); format: in vivo, human
Method: The doses were adjusted to the patient's condition with a mean of 3.5 mg/Kg of body weight/day by oral administration, or 20 mg per dose, every 3-6 months, by intravenous administration in one of the cases.
The latter can be attributed to the scarce development of inertia due to the internal osseous lack of resorption in the diaphysis. In FIG. 2 it can be observed that in children with normal development, there exists a range of cortical mineralization which contributes to the diaphysial stability (resistance to deformation). This range is of approximately 1020-1100 mg/cm3.
The administration period of bisphosphonates was 2-4.5 years, indicating the existence of a wide interindividual variability in order to obtain the “mineralizing” effect and the inconvenience of adopting fixed periods of treatments.

| SMILES | effect on the growth of cartilage (growth of cartilage) | cortical mineralization range reached (cortical mineral density of the tibia, vDMO) ([1]; FIG. 2, range of normal children that contributes to diaphysial stability, reached by treated OI children) | osseous metabolic turnover (biochemical markers of osseous resorption and formation) ([1]; OI type III/IV children, continuous scheme 2.5-4 years, mean 3.5 mg/Kg/day oral or 20 mg i.v. every 3-6 months, urinary hydroxyproline/creatinine, serum alkaline phosphatase, osteocalcine) | total apparent mineral density of the lumbar vertebrae and the neck of the femur ([1]; osseous absorptiometries, continuous scheme 2.5-4 years) |
| --- | --- | --- | --- | --- |
| CN(C)CCC(O)(P(=O)(O)O)P(=O)(O)O [olpadronate] | not to affect the growth of cartilage | – | – | – |
| NCCC(O)(P(=O)(O)O)P(=O)(O)O [pamidronate, disodium pamidronate] | – | 1020-1100 mg/cm3 | reduction of the osseous metabolic turnover | progressive improvement |

Source: patent US7846474B2, “Use of bisphosphonates for the treatment of osteogenesis imperfecta” (Gador S.A., priority 1999, dated 2010)
